The METLIN SMRT retention time set (Domingo-Almenara et al. 2019)

Test: gradient 5% acetonitrile 3 min, to 50% in 2 min, to 85% in 15 min, held 3 min, 100 µL/min
Settings: column: Zorbax Extend-C18 2.1 x 50 mm; eluents: water / acetonitrile, 0.1% formic acid
Procedure, shortened: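 Each retention time is based on an adduct peak selected computationally and verified by manual inspection. Measurements used HPLC–quadrupole time-of-flight mass spectrometry in positive and negative ionization mode on mixtures of ~100 pure standards. Chromatography ran on a Zorbax Extend-C18 column (2.1 × 50 mm, 1.8 μm) at 100 μL/min with water and acetonitrile, each containing 0.1% formic acid, and dead and dwell volumes of 40 μL and 900 μL.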

| SMILES | RP-LC retention time [s] |
| --- | --- |
| Cc1nn(C)cc1C(C)NC(=O)C1CCN(c2cn[nH]c(=O)c2)CC1 (centres undefined) | 568 |
| CCOC(=O)c1[nH]c(C)c(C(=O)N2CCC(CC(=O)N(C)Cc3ccco3)CC2)c1C | 729 |
| COc1cccc(-c2ccc3nc(N4CCC(C(=O)NC5CC5)CC4)sc3n2)c1 | 861 |
| CCCCS(=O)(=O)N1CC(c2nc(C)no2)C2(CCOCC2)C1 (centres undefined) | 783 |
| CC(C)N1CCN(C(=O)c2cc(-c3ccccc3)n[nH]2)CC1 | 589 |
| Cc1nc(C2CCN(C(=O)CCc3c[nH]c4ccccc34)CC2)n[nH]1 | 603 |
| CC1=C(N2CC2)C(=O)C(CO)=C(N2CC2)C1=O | 585 |
| COc1cccc(-c2nnc(Cc3nc(-c4ccc(F)cc4)no3)o2)c1 | 1020 |
| Cc1cc2c(cc1S(=O)(=O)N1CCN(c3ccccn3)CC1)OCCN2C | 668 |
| COc1ccc(NC(=O)c2cn3c(n2)CSCC3)cc1Cl | 737 |
| CCOC(=O)c1noc2nc(C)nc(NCCc3ccc(Cl)cc3)c12 | 1210 |
| O=C(COc1ccc(-c2nnc3n2CCCC3)cc1)NCc1ccc2c(c1)OCO2 | 662 |
| CN1C(=O)C2CCCCN2c2ccc(C(=O)NCCCN3CCN(C4CCCCC4)CC3)cc21 (centres undefined) | 594 |
| O=C(NC1CC1)C1CCCN(C(=O)c2ccccc2F)C1 (centres undefined) | 634 |
| Cc1nc(-c2ccc(N3CCN(C(=O)c4ccco4)CC3)nc2)sc1C | 759 |
| Cc1noc2ncnc(N3CCC(C(=O)NCCCN4CCCCC4C)CC3)c12 (centres undefined) | 587 |
| Cc1ccc(NS(=O)(=O)c2cc(-c3[nH]ncc3C(=O)N3CCCC3)oc2C)c(F)c1 | 738 |
| Cc1ccccc1NC(=O)N1CCC(c2nc(C(=O)N3CCOCC3)c(C)o2)CC1 | 673 |
| O=C(Cc1csc2nc(-c3cccc(Br)c3)cn12)N1CCN(c2ccccc2)CC1 | 1010 |
| CC1(C)CCSC(/C=C/c2ccccc2)=N1 | 690 |
| Cc1ncc2c(n1)CCCN(CC(=O)NC1CC1)C2=O | 567 |
| Cc1cc(C)c2c(CN3CCN(c4ccccn4)CC3)cc(=O)oc2c1 | 672 |
| Cc1ccc(NC(=O)C2CCN(S(=O)(=O)c3cc(-c4noc(C5CC5)n4)ccc3C)CC2)nc1 | 868 |
| COCCN1CC(CO)C2(CCN(Cc3ccc(Cl)cc3F)CC2)C1 (centres undefined) | 538 |
| Cc1ccc(C(=O)NCc2ccc(N3CCCC3)nc2)s1 | 601 |

| SMILES | RP-LC retention time [s] |
| --- | --- |
| CCc1cc(C(=O)N2CCN(CC(C)C)CC2)nc2cc(-c3ccccn3)nn12 | 610 |
| COCCn1nnnc1C1CC2(CCOCC2)C(=O)N1Cc1ccc(Cl)cc1 (centres undefined) | 904 |
| c1ccc(CN2CCN(Cc3cnoc3-c3ccccc3)CC2)cc1 | 689 |
| Cc1nc(C(C)C)nc2c1CCC(=O)N2Cc1cccnc1 | 519 |
| O=C(NCc1ccco1)C1CCN(c2cncnc2N2CCOCC2)CC1 | 578 |
| COc1ccc(CNC(=O)C2(c3ccc(NS(C)(=O)=O)cc3)CCCCC2)cc1 | 859 |
| COc1ccc(-c2ncc3c(n2)CCN(S(=O)(=O)c2cccc(Cl)c2C)C3)cc1 | 1180 |
| O=C1CN=C(c2ccc[nH]2)c2cc(Cl)ccc2N1 | 650 |
| O=C(c1ccc2c(c1)OCO2)N1[C@H]2CC[C@@H]1c1cnc(-c3ccccc3)nc1C2 | 914 |
| Cc1ccc(-c2nc3cnccn3c2NCCC(=O)NC2CCCC2)cc1 | 696 |
| Cc1ccccc1CNC(=O)C1CCCN(S(=O)(=O)c2c[nH]c(C(=O)N3CCCCCC3)c2)C1 (centres undefined) | 871 |
| CC(C)NC(=O)c1ccc(OCC2CCCN(C(=O)c3cccs3)C2)cc1 (centres undefined) | 818 |
| COC(=O)CSCC(=O)Nc1nccs1 | 610 |
| Cc1ccc(NC(=O)Nc2ccc(NC(=O)N3CCC(C(=O)NCC4CC4)CC3)cc2)cc1 | 740 |
| CCS(=O)(=O)N1CCCc2cc(C(=O)NC3CCCCCC3)ccc21 | 956 |
| COCc1nncn1C1CCN(S(=O)(=O)c2ccc(F)c(Cl)c2)CC1 | 739 |
| COc1ccc2c(CCNc3nc(-c4ccc(C5CCCCC5)cc4)cs3)c[nH]c2c1 | 1250 |
| CCCCS(=O)(=O)N1CCC(n2c(-c3ccc(OC)cc3)nc3cccnc32)C1 (centres undefined) | 846 |
| CCCC1NN(C)C2C(=O)NC(c3cc(S(=O)(=O)N4CCN(C)CC4)ccc3OCC)NC12 (centres undefined) | 722 |
| Cc1nn(-c2ccc(F)cc2)c(-n2cccc2)c1C(=O)N1CCN(c2ccccn2)CC1 | 650 |
| O=C(NC1(c2nc(-c3ccccc3)no2)CCCCC1)c1ccccc1F | 1100 |
| CS(=O)(=O)c1nc2ccc(NS(=O)(=O)c3ccc4c(c3)OCCO4)cc2s1 | 792 |
| O=C(NC1CCCCC1)N1CCCCC1c1nncn1CC1CC1 (centres undefined) | 704 |
| CCCNC(=O)C1CCN(c2ccc(SCC(=O)Nc3ccc4c(c3)OCO4)nn2)CC1 | 610 |

The next lines start with the values.

| RP-LC retention time [s] | SMILES |
| --- | --- |
| 800 | CN1c2ccc(Cl)cc2C(=O)NC12CCN(C(=O)Nc1ccccc1)CC2 |
| 555 | CCOC(=O)CN1CCC(c2nnc(-c3ccc(F)cc3)o2)CC1 |
| 938 | Cc1cc(-c2nnc(-c3ccc(F)cc3)o2)c(C)n1CC(=O)Nc1ccc2c(c1)OCO2 |
| 731 | O=C(Nc1ccccc1)C1CCN(C(=O)C2Sc3ccccc3NC2=O)CC1 (centres undefined) |
| 707 | COc1ccc(N2CC(NC(=O)C(=O)c3c(C)[nH]c4ccccc34)CC2=O)cc1 (centres undefined) |
| 702 | CCn1c(=O)n(CC)c2cc(NC3=C(C(N)=O)S(=O)(=O)c4ccccc43)ccc21 |
| 596 | CN(C)[C@@H]1CN(C(=O)Cn2c(=O)oc3cc(Cl)ccc32)C[C@H]1CO |
| 994 | Cc1ccc(S(=O)(=O)[C@H]2CS(=O)(=O)C[C@@H]2N2CCN(c3ccccc3F)CC2)cc1 |
| 886 | Cc1ccc2c(c1)N(C(=O)Cn1ncn3c(C)c(C(=O)NCc4ccccc4)c(C)c3c1=O)CCO2 |
| 872 | Cc1ccccc1-c1nnc(COc2ccc(NC(=O)c3ccoc3)cc2)o1 |
| 1210 | Cc1cc2oc(C(=O)NCCc3nc(-c4ccccc4)no3)c(C)c2cc1C |
| 786 | Cn1nccc1C(=O)Nc1ccc(OCc2nnc(-c3ccccc3)o2)cc1 |
| 891 | CCc1noc(NC(C)=O)c1-c1ccc(C)c(S(=O)(=O)Nc2cc(Cl)ccc2C)c1 |
| 913 | CCOc1ccc(NC(=O)C2(C)Oc3cccnc3N(CC)C2=O)cc1 (centres undefined) |
| 1120 | O=C(Nc1nc(-c2ccc(F)cc2)cs1)c1cccc(Br)c1 |
| 704 | CCN1CCCn2cc(S(=O)(=O)Nc3cc(OC)ccc3OC)cc2C1=O |
| 783 | Cc1ccc2c(=O)c(C(=O)N3CCC(C)CC3)cn(CC(=O)Nc3ccccc3)c2n1 |
| 875 | Cn1cc2c3c(cccc31)CN(C(=O)c1ccccc1F)CC2 |
| 901 | COc1ccc(-c2nnc(COc3cccc(NC(=O)C4CCC4)c3)o2)cc1 |
| 818 | COc1ccc(Cn2nnc3cc(C(=O)NCc4ccco4)ccc32)cc1 |

| RP-LC retention time [s] | SMILES |
| --- | --- |
| 884 | O=C(CCC1CCCN(C(=O)Nc2ccc(Cl)cc2)C1)NCc1ccccc1 (centres undefined) |
| 934 | CCOc1ccc(NS(=O)(=O)c2ccc(-c3c(C)noc3C)cc2)cc1 |
| 641 | CCN(CC)c1ncc2c(n1)CCC(C(=O)Nc1ccc(N3CCOCC3)cc1)C2 (centres undefined) |
| 876 | O=C(Nc1ccc2c(c1)N(C(=O)c1ccccc1)CCC2)c1cccs1 |
| 1090 | CCn1c(=O)c2cc(C(=O)Nc3ccc(C(F)(F)F)cc3)nn2c2ccccc21 |
| 1110 | O=C(Cn1cccc1-c1nc(-c2ccc3c(c2)OCO3)no1)Nc1cc(F)ccc1Cl |
| 939 | Fc1ccccc1Cc1nc(-c2cccc(-c3ccn[nH]3)c2)no1 |
| 779 | O=C(NCc1cccs1)C1CCN(Cc2cc3ccccc3n2Cc2cccc(F)c2)CC1 |
| 791 | COc1ccc(C2C(C(=O)Nc3cccc(C)n3)c3ccccc3C(=O)N2C)cc1 (centres undefined) |
| 573 | CN(C)C(=O)c1ccc2c(c1)N(CC(=O)N1CCN(c3ccccn3)CC1)C(=O)CS2 |
| 638 | Cc1nn(C(C)C(=O)NCc2ccccn2)c(=O)c2c(C)n(-c3ccccc3)nc12 (centres undefined) |
| 985 | CC(C)(C)NS(=O)(=O)c1cc(-c2nnc(-c3ccccc3)o2)ccc1F |
| 1230 | Cc1ccc(C)c(S(=O)(=O)N2c3ccccc3CC2c2nc(C(C)C)no2)c1 (centres undefined) |
| 899 | CCOC(=O)c1nc(N(CC)Cc2ccccc2)c2ccccc2n1 |
| 660 | COCCn1cc(CCNC(=O)Nc2c(F)cccc2F)c2cccnc21 |
| 831 | CCCSc1nnc(CNC(=O)c2ccccc2F)n1-c1cccc(C(F)(F)F)c1 |
| 857 | Cc1ccccc1NC(=O)Cn1c(C(F)(F)F)nc2cc3c(cc21)OCCO3 |
| 780 | CCc1cccc(NS(=O)(=O)c2ccc3c(c2)CCCC(=O)N3)c1 |
| 1090 | CCOc1cccc(-c2noc(Cn3nc(-c4cccc(OC)c4)ccc3=O)n2)c1 |
| 592 | CCC(=O)Nc1ccc(CCc2nc3ccc(C(=O)NCC4CCCO4)cc3[nH]2)cc1 (centres undefined) |
